Laboratory results: US20060018827A1, “Positron therapy of inflammation, infection and disease” (priority 2004, published 2006)

Assays:
[1] = system: mammary tumors in PyMT mice; assay: Treatment of PyMT mice with ^18F-FDG (toleration, apoptosis and necrosis detection); type: in vivo, mouse
Description: (§1) Animals. All procedures involving mice were conducted in accordance with the National Institutes of Health regulations concerning the use and care of experimental animals. The study of mice was approved by the Albert Einstein College of Medicine (AECOM) Animal Use Committee. Transgenic mice expressing the polyoma middle T antigen (PyMT) in the mammary epithelium under the control of mouse mammary tumor virus (MMTV) long terminal repeat were provided by Dr. W. J. Muller (McMaster University, Ontario, Canada) and then bred at AECOM. At the age of 10 weeks these mice have multiple mammary tumors 0.15-0.17 cm in diameter. In mice older than 18 weeks the tumors are more than 1 cm in diameter. MMTV-NeuT mice (Muller et al. 1988), which carry erbB-2 (Neu), one of the better known human breast cancer oncogenes, were purchased from Jackson Laboratories. MMTV-NeuT mice were obtained as retired breeders and some of them developed mammary tumors at the age of 5 months, whereas others remained-tumor free until 6-7 months of age. C3H/B6 female mice lacking the PyMT transgene were used as healthy controls in therapy experiments. Notch tumor-bearing mice were produced by subcutaneously injecting six to eight week old female nude mice with 105 Notch cells on their right flank. One week after implantation the tumors reached 0.5-0.7 cm in diameter and therapy with FDG was initiated.
Treatment of PyMT mice with ^18F-FDG. After a 4-hour fast, three groups of mice were treated i.p. with the following doses of ^18F-FDG: group 1 (five 10-week-old mice), 2-4 mCi; group 2 (three 22-week-old mice), 2 mCi; group 3 (two C3H/B6 mice), 3 mCi to assess radiation damage to healthy breast tissue. Three 10-week-old and two 22-week-old PyMT mice served as untreated controls. At 10 days after treatment, mice were killed. In younger mice, the right abdominal mammary glands were removed for whole mount preparation as described (Gouon-Evans et al., 2000), then fixed in buffered formalin and sectioned. In older mice, the tumors were removed and processed as above. Some sections were stained with H&E; others were analyzed for the presence of apoptotic and necrotic cells.
Apoptosis and necrosis detection. The detection of apoptotic and necrotic cells in the tumors was performed with an Apoptag® Plus apoptosis detection kit (Serologicals) in accordance with the manufacturer's instructions. In brief, 3′-OH termini of DNA fragments, which are the hallmark of apoptosis, were labeled with digoxigenin-modified nucleotides by terminal deoxynucleotidyl transferase. This enzyme selectively detects apoptotic over necrotic cells. The labeled DNA was detected with an anti-digoxigenin antibody, and detection was performed with a chromagen: apoptotic cells were stained brown, and areas of necrosis were stained yellow.

[2] = system: xenografted Notch tumor; assay: Treatment of Notch tumor-bearing mice with ^18F-FDG; type: in vivo, mouse; details: Notch tumor-bearing nude mice, 2.5 mCi i.p.
Description: Notch cell line. Mouse mammary gland cell line 5505 was derived from mammary tumors arising in transgenic mice which express an activated form of Notch 4 from the mouse mammary tumor virus long terminal repeat (MMTV-LTR) promoter/enhancer (Fitzgerald et al. 2000). This cell line is further referred to herein as Notch cells. The Notch cells were cultured in DMEM supplemented with 10% FCS, 10% NCTC-109, 1% non-essential amino acids, […] D-glucose and 1% penicillin-streptomycin.
as §1, with “Notch tumor-bearing mice were produced by subcutaneously injecting six to eight week old female nude mice with 105 Notch cells on their right flank. One week after implantation the tumors reached 0.5-0.7 cm in diameter and therapy with FDG was initiated.” left out
Treatment of Notch tumor-bearing mice with ^18F-FDG. […] Animals were monitored for their vital signs and survival for 1 month. Their tumors were measured every 3 days with calipers in three perpendicular planes and the product of the three measurements was multiplied by 0.5 and expressed in cm^3. The growth rate for tumors in cm^3/day was calculated using the formula: […]/number of days survived. […]

[3] = system: metastatic breast cancer; assay: ^18F-FDG-PET in breast cancer patients with metastatic disease; type: in vivo, human
Description: (§2) ^18F-FDG-PET in breast cancer patients with metastatic disease. Approval was obtained from the Albert Einstein College of Medicine Cancer Center Protocol Review Committee and the Montefiore Medical Center Institutional Review Board. Retrospectively, five consecutive patients with breast cancer and metastatic disease shown on ^18F-FDG-PET scanning were evaluated. After more than 4 hours of fasting, the patients were administered 3.5 mCi of ^18F-FDG, and rested during an uptake period of 45 minutes. The patients then underwent a whole-body scan on the CPET scanner. The scanning protocol consisted of 6 minutes of emission and two rotations of a ^137Cs source for transmission per bed position, and approximately six bed positions. Images were corrected for attenuation and reconstructed with the iterative method. To reduce volume averaging, a small round region of interest 12 pixels in size was drawn in the center of the tumor and in the center of normal liver. The diameter of the region was 14 mm. Standardized uptake values (SUVs) were calculated for all regions of interest by the formula SUV=(activity in tissue [mCi/g]) divided by (injected activity [mCi]/body weight [g]). The tumor to liver ratios (TLRS) were calculated by the formula TLR=SUV of tumor divided by SUV of liver.

[4] = system: metastatic cancers; assay: FDG-PET SUVmax in patients with different types of metastatic cancer; type: in vivo, human
Description: as §2
Human Tumor Dosimetry. For each patient, the tumor with the highest SUVmax was used, and corresponding calculated tumor dose (TD) for metastatic cancers are shown in Columns 4 and 5 in Table 3. Tumor dose is calculated by the formulae: D(cGy)=100*SUV, for a dose of 5 Ci HD ^18F-FDG; and D(cGy)=150*SUV, for a dose of 7.5 Ci HD ^18F-FDG.

[5] = Patient 1, metastasis to sub-carinal lymph node, 3.5 mCi
[6] = Patient 2, metastasis to the left axilla, 3.5 mCi
[7] = Patient 4, metastasis to the right axilla, 3.5 mCi

O=C[C@H]([18F])[C@@H](O)[C@H](O)[C@H](O)CO [^18F-FDG, ^18F-2-deoxy-2-fluoro-D-glucose]
apoptotic cells in treated small tumors ([1]; 10-week-old PyMT mice, tumors 0.15-0.17 cm, 2-4 mCi i.p., 10 days after treatment): 4±1%
necrotic areas, share of tumor volume ([1]; 22-week-old PyMT mice, tumors more than 1 cm, 2 mCi i.p., 10 days after treatment): 14%
apoptosis or necrosis in healthy mammary glands ([1]; C3H/B6 mice, 3 mCi i.p.): No apoptosis or necrosis was detected
changes in eating and drinking habits, urine and fecal excretion, or body weight ([1]; PyMT mice, 2-4 mCi i.p., observed for 10 days): No changes
radioactivity detected in mice ([1]; PyMT mice, 24 hours after injection): no radioactivity was detected
mean (95% CI) time to death [2]: 18 (13-23) days
survival period ([2]; longest survival): up to 30 days
median tumor growth rate ([2]; therapy group): 0.020 cm^3/day
SUV Metastasis [3, 5]: 5.3
TLR [3, 5]: 1.89
SUV Normal liver ([3]; Patient 1, 3.5 mCi): 2.8
SUV Metastasis [3, 6]: 7.4
TLR [3, 6]: 3.36
SUV Normal liver ([3]; Patient 2, 3.5 mCi): 2.3
SUV Metastasis ([3]; Patient 3, liver metastasis (10 cm×6 cm×4.5 cm), 3.5 mCi): 5.8
TLR ([3]; Patient 3, liver metastasis, 3.5 mCi): 2.23
lowest SUV ([3]; Patient 3, tumor with a diameter of 2 cm): 3.8
SUV Normal liver ([3]; Patient 3, 3.5 mCi): 2.6
SUV Metastasis [3, 7]: 5.3
TLR [3, 7]: 2.52
SUV Normal liver ([3]; Patient 4, 3.5 mCi): 2.1
SUV Metastasis ([3]; Patient 5, right lung metastasis (most intense, diameter 5 cm), 3.5 mCi): 9.9
TLR ([3]; Patient 5, right lung metastasis, 3.5 mCi): 3.67
least intense SUV ([3]; Patient 5, tumor with a diameter of 1.5 cm): 2.9
SUV Normal liver ([3]; Patient 5, 3.5 mCi): 2.7
average TLR ([3]; five patients with metastatic breast cancer, 3.5 mCi): 2.7±0.8
SUVmax Median ([4]; metastatic Anaplastic Thyroid cancer, 3 patients): 17.4
SUVmax Median ([4]; metastatic Breast cancer, 10 patients): 7.2
SUVmax Median ([4]; metastatic Cervical cancer, 4 patients): 7.0
SUVmax Median ([4]; metastatic Esophageal cancer, 5 patients): 11.1
SUVmax Median ([4]; metastatic Head & Neck cancer, 9 patients): 6.6
SUVmax Median ([4]; metastatic Lung cancer, 10 patients): 5.9
SUVmax Median ([4]; metastatic Lymphoma, 9 patients): 5.6
SUVmax Median ([4]; metastatic Melanoma, 7 patients): 9.0
SUVmax Median ([4]; metastatic Ovarian cancer, 9 patients): 5.3
maximum SUV ([4]; patient with metastatic esophageal cancer, abdominal metastasis): 33
maximum SUV ([4]; patient with metastatic non-small cell lung cancer, right mediastinum): 14.8
